Molecules are shown by their SMILES.

Consider 4 molecules from US20200045983A1, “PROMOTER FOR LEGUMINOUS PLANT GROWTH” (KAO CORPORATION, priority 2017, published 2020).

The test system of assay [1] is soybean (Glycine max). Description: Effect of soyasaponin Bb on soybean growth, in combination with root nodule bacterium material (Example 2). The format is in vivo. Conditions: for foliar age among the three plots / plant height among the three plots / above-ground part fresh weight vs only the root nodule bacterium material / root nodule weight vs only the root nodule bacterium material / number of lateral buds / increase in the number of root nodules vs only the root nodule bacterium material: 1 mL of 20 μM solution, 24 days; for above-ground part fresh weight vs only the root nodule bacterium material: no significant change; for root nodule weight vs only the root nodule bacterium material: no significant difference; for number of lateral buds: rarely seen in non-application plot; for increase in the number of root nodules vs only the root nodule bacterium material: significant only for genistein. The protocol:
Each Leonard jar filled with culture soil (Takii water-containing cell culture soil TM-1, Takii & Co., Ltd.) was irrigated with 100 mL of tap water. Then, a root nodule bacterium material (“Dr Mametaro®” (Idemitsu Kosan Co., Ltd.) was distributed at a thickness on the order of 5 mm onto the culture soil in the jar using a spatula. Two seeds of soybean (cultivar “Ryokuheki”, Kaneko Seeds Co., Ltd.) were sown by burying at a depth of approximately 1 cm from the culture soil surface. 1 mL of a solution of 20 μM soyasaponin Bb (soyasaponin I, ChromaDex, Inc.) dissolved in 50 mM TAPS buffer (pH 7.7) was added dropwise onto the culture soil covering the seeds using a micropipette. The soyasaponin Bb concentration in the culture soil was approximately 0.3 ppm. Only 1 mL of 50 mM TAPS buffer as a negative control and 1 mL of 20 μM genistein (Gen) solution as a positive control of root nodule formation promotion were applied in the same way as above (for the root nodule formation-promoting effect of genistein, see: Plant and Soil, 1997, 192: 141-151; and Secretions and Exudates in Biological Systems 27-48, Signaling and Communication in Plants 12, Springer-Verlag Berlin Heidelberg, 2012).
Plant cultivation was performed under the same conditions as in Example 1. 24 days after the sowing, growth indexes (foliar age, plant height, the number of lateral buds, above-ground part fresh weight, underground part fresh weight, the number of root nodules, and root nodule fresh weight) were measured. Each growth index was obtained as to each test plot by determining a mean of two plant individuals in each jar, and subsequently calculating a mean of four jars (n=4). The Tukey-Kramer method was used to test the significant difference among the plots.

Assay [2] concerns soybean (Glycine max). Description: Effect of soyasaponin Bb on soybean growth in culture soil (Example 1). The class given is in vivo. Conditions: approx. 0.3 ppm in culture soil, 24 days after sowing. Here is the method:
Each Leonard jar (Soil Science and Plant Nutrition, 1983, 29: 97-100) filled with approximately 65 g of culture soil (Takii water-containing cell culture soil TM-1, Takii & Co., Ltd.) was irrigated with 100 mL of tap water. Then, two seeds of soybean (cultivar “Ryokuheki”, Kaneko Seeds Co., Ltd.) were sown by burying at a depth of approximately 1 cm from the culture soil surface. 1 mL of a solution of 20 μM soyasaponin Bb (soyasaponin I, ChromaDex, Inc.) dissolved in 50 mM TAPS buffer (pH 7.7) was added dropwise onto the culture soil covering the seeds using a micropipette. The soyasaponin Bb concentration in the culture soil was approximately 0.3 ppm (ppm by mass; the same holds true for the description below). 50 mM TAPS buffer (pH 7.7) was applied as a control (soyasaponin Bb non-application plot) in the same way as above.
Plant cultivation was performed in a plant growth chamber (LPH-350SP, Nippon Medical & Chemical Instruments Co., Ltd.). The light conditions were set to 16-hour light (light intensity: 130 μmol/m^2/s)/8-hour dark. The temperature was set to 26° C. for light and 20° C. for dark, and the humidity was set to 50%. Water supply was performed appropriately (approximately once per 7 to 10 days) by the addition of tap water in an appropriate amount to the lower part of the jar. 24 days after the sowing, growth indexes (foliar age, plant height, the number of lateral buds, above-ground part fresh weight, and underground part fresh weight) were measured. Each growth index was obtained as to each of the soyasaponin Bb non-application plot (control) and the soyasaponin Bb application plot by determining a mean of two plant individuals in each jar, and subsequently calculating a mean of four jars (n=4). The Student's t test was used to test the significant difference between the soyasaponin Bb application plot and the non-application plot.

The subject of the next assay is lettuce (Lactuca sativa). Conditions: Non Patent Literatures 7 to 10; cited from earlier work.
Assay [3] relates to soybean (Glycine max). Nature of the assay: Effect of saponin formulation and iron phosphate in combination on soybean yield (Example 10). The class given is in vivo. To be noted: 50 mg saponin formulation and/or 0.75 mg iron(III) phosphate tetrahydrate per pot, irrigation, 86 days. The protocol: “Ryokuheki” (Kaneko Seeds Co., Ltd.) was used as soybean seeds. Each Wagner pot of 1/5,000 a was filled with approximately 4 L of culture soil (Takii water-containing cell culture soil, intermedium-acting fertilizer effect type:expanded vermiculite=1:1 (volume ratio)), and three seeds were sown at a depth of approximately 1 cm from the culture soil surface. 50 mg of a saponin formulation (“soybean saponin 80”; AccessOne Co., Ltd.), 0.75 mg of iron(III) phosphate tetrahydrate (Junsei Chemical Co., Ltd.), and a mixture thereof were each suspended in 100 mL of tap water, and the culture soil surface was irrigated with each suspension (“saponin plot”, “iron phosphate plot” and “combination plot”, respectively; both the concentrations of the saponin formulation of the combination plot and the saponin plot in the culture soil were approximately 12.5 ppm and corresponded to approximately 6.1 ppm in terms of the concentration of group B soyasaponin calculated from quantification results (Table 7) in Production Example 1). […] 86 days after the sowing, pods (the pods include grains; the same holds true for the description below) were harvested, and a pod fresh weight per plant (pot) and a pod fresh weight per pod (average weight per pod) were measured (n=7 only for the combination plot, and n=8 for the other plots). […]

Turning to `C[C@@H]1O[C@@H](O[C@H]2[C@H](O[C@H]3[C@H](O[C@H]4CC[C@@]5(C)[C@@H](CC[C@]6(C)[C@@H]5CC=C5[C@@H]7CC(C)(C)C[C@@H](O)[C@]7(C)CC[C@]56C)[C@@]4(C)CO)O[C@H](C(=O)O)[C@@H](O)[C@@H]3O)O[C@H](CO)[C@H](O)[C@@H]2O)[C@H](O)[C@H](O)[C@H]1O` [soyasaponin Bb], in the assay with soybean (Glycine max) [1] (1 mL of 20 μM solution (approx. 0.3 ppm in culture soil), 24 days after sowing, statistically significant), the “increase in underground part fresh weight with respect to only the root nodule bacterium material” value is given as “approximately 1.5 times”. In the assay with soybean (Glycine max) [1], the “foliar age among the three plots” value is “did not differ significantly”, the “plant height among the three plots” value is on record as “did not differ significantly”, the “above-ground part fresh weight vs only the root nodule bacterium material” value is reported as “tendency toward increase” and the “root nodule weight vs only the root nodule bacterium material” value is “tendency toward increase”. In addition, in the assay on soybean (Glycine max) [1], the “number of lateral buds” value is “on average one per individual” and the “increase in the number of root nodules vs only the root nodule bacterium material” value was “approximately 1.3 times”. For the same molecule, in the assay on soybean (Glycine max) [2], the “foliar age vs non-application plot” value is recorded as “did not differ significantly” and the “plant height vs non-application plot” value is given as “did not differ significantly”. In addition, in the assay on soybean (Glycine max) [2] (statistically significant), the “increase in the number of lateral buds with respect to the non-application plot” value is reported as “approximately 2.7 times” and the “increase in underground part fresh weight with respect to the non-application plot” value is listed as “approximately 2.2 times”. For the same molecule, the “increase in above-ground part fresh weight with respect to the non-application plot” value in the assay with soybean (Glycine max) [2] (tendency, no significant difference) is listed as “approximately 1.1 times”. Also, the lettuce radicle elongation entry in the assay with lettuce (Lactuca sativa) is reported as “relatively weak or was not seen”.

Regarding `O.O.O.O.O=P([O-])([O-])[O-].[Fe+3]` [iron phosphate, iron(III) phosphate tetrahydrate], in the assay on soybean (Glycine max) [3] (significant (5% or less)), the “increase in pod fresh weight per pod with respect to the non-application plot” value is “approximately 10%”. Further, the “increase in pod fresh weight per plant with respect to the non-application plot” value with soybean (Glycine max) [3] (significant only for combination) was “approximately 10%”.

As to `O=c1c(-c2ccc(O)cc2)coc2cc(O)cc(O)c12` [genistein, reference compound], in the assay with soybean (Glycine max) [1], the “foliar age among the three plots” value is reported as “did not differ significantly”, the “plant height among the three plots” value is “did not differ significantly”, the “above-ground part fresh weight vs only the root nodule bacterium material” value is listed as “tendency toward increase” and the “root nodule weight vs only the root nodule bacterium material” value was “tendency toward increase”. Besides, in the assay with soybean (Glycine max) [1], the “number of lateral buds” value is recorded as “on average one per individual” and the “increase in the number of root nodules vs only the root nodule bacterium material” value was “approximately 1.7 times”.

Regarding `CC1=C(O)C(=O)C[C@H](O[C@@H]2CC(C)(C)C[C@H]3C4=CC[C@@H]5[C@@]6(C)CC[C@H](O[C@@H]7O[C@H](C(=O)O)[C@@H](O)[C@H](O)[C@H]7O[C@@H]7O[C@H](CO)[C@H](O)[C@H](O)[C@H]7O[C@@H]7O[C@@H](C)[C@H](O)[C@@H](O)[C@H]7O)[C@](C)(CO)[C@@H]6CC[C@@]5(C)[C@]4(C)CC[C@@]23C)O1` [soyasaponin βg, reference compound], the lettuce radicle elongation result in the assay with lettuce (Lactuca sativa) was “promoted”.
